Results on 21 compounds are retold here after patent publication US20250388544A1, “HETEROAROMATIC INHIBITORS OF ASTACIN PROTEINASES” (VIVORYON THERAPEUTICS N.V., priority 2019, published 2025).

Common to all, as to type: biochemical
For assay [1], the target named is T1, hMeprin α (Homo sapiens, UniProt Q16819).
T1 sequence (Q16819 66-746): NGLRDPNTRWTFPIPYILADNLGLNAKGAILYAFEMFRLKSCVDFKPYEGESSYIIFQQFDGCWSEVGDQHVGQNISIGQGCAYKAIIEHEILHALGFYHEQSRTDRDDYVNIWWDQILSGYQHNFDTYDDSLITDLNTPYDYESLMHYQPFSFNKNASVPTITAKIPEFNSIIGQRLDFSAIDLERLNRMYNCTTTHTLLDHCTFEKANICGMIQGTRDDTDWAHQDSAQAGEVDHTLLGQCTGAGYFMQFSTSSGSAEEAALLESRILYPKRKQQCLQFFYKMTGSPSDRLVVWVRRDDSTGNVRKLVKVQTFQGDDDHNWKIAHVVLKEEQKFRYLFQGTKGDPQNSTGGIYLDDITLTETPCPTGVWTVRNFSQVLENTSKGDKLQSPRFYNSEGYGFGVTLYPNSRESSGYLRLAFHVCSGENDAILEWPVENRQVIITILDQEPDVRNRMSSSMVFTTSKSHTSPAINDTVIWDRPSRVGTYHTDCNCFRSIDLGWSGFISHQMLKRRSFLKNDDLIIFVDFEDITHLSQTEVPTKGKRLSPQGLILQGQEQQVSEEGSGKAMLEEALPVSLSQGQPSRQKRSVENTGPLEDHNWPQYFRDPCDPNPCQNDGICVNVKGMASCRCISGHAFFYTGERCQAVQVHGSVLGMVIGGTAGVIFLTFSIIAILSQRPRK
Nature of the assay: Enzymatic assay, quenched peptide substrate cleavage, method A. The note with it: geometric mean (geometric SD factor in parentheses), read-out: Meprin alpha IC50. On the procedure:
(§1) The determination of enzymatic activity was based on the cleavage of internally quenched peptide substrates. A typical assay of 250 μl total volume measured in black 96 well plates consisted of 100 μl buffer, 50 μl enzyme at a final concentration of 5e-8 M to 2e-10 M, 50 μl substrate (0.15 to 80 μM, in buffer, 0.5% DMSO) and 50 μl inhibitor solution (in buffer, 1% DMSO). In case of 125 μl assay volume (black 96 half area well plates) all volumes were cut in half. Enzymatic activity of ADAMs was measured in 384 well plates with 60 μl total assay volume consisting of 20 μl inhibitor, 20 μl buffer, 10 μl enzyme and 10 μl substrate.
(§2) Based on method B Ki^(app) values were determined using Morrison's equation. All measurements were performed using a fluorescence plate reader (FLUOSTAR OPTIMA, BMG Labtech) at 30° C. The kinetic parameters were determined at least in duplicates on separate days. The excitation/emission wavelength was 340/420 nm. The kinetic data was evaluated using GRAFIT software (version 7.0.3, Erithacus Software).

In assay [2] the target is T2, hMeprin β (Homo sapiens, UniProt Q16820).
T2 sequence (Q16820 62-701): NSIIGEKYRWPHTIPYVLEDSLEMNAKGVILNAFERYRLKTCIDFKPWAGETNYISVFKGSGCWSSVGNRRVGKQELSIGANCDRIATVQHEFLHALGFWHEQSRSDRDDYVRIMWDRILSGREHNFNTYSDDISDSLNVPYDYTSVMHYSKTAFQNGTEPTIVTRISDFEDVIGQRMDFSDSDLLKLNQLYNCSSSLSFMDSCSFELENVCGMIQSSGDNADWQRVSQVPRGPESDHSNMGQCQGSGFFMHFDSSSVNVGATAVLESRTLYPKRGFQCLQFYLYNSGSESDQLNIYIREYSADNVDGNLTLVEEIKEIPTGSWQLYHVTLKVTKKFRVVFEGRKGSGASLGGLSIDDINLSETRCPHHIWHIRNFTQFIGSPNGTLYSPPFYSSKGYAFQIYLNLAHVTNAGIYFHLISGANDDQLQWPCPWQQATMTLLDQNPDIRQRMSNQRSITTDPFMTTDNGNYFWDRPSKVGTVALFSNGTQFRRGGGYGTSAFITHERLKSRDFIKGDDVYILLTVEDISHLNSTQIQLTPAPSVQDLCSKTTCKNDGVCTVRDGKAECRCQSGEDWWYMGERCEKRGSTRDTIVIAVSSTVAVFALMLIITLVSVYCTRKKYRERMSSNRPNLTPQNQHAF
Described as above. The note with it: geometric mean (geometric SD factor in parentheses), read-out: Meprin beta IC50. On the procedure:
as §1, §2

For a further assay, the target named is T3, hMMP 9 (Homo sapiens, UniProt P14780).
T3 construct: purchased R&D systems
T3 sequence (P14780 107-707 limits assumed): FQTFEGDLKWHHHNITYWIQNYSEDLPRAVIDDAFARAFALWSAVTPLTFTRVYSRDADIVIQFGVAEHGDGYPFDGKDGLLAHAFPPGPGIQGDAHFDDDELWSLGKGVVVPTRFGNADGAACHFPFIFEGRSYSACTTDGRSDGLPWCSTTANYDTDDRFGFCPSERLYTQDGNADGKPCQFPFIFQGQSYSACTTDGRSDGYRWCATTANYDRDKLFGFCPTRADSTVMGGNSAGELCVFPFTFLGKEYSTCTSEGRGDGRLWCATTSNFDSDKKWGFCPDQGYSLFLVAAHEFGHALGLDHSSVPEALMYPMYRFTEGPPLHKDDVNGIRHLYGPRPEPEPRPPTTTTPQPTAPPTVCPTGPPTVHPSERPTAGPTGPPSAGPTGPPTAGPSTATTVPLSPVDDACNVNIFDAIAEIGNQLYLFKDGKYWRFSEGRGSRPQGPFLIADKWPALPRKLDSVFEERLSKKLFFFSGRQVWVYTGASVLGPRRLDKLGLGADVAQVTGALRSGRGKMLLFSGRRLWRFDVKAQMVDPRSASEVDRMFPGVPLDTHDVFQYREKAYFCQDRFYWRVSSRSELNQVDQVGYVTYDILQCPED
Nature of the assay: Residual enzyme activity of other metalloproteases. The note with it: read-out: Residual enzyme activity MMP9. On the procedure: as §1
MMPs were activated prior to measurement by APMA (p-aminophenylmercuric acetate) treatment according to manufacturer's instructions (R&D systems).

A further assay deals with T4, hADAM 17 (Homo sapiens, UniProt P78536).
T4 construct: purchased R&D systems
T4 sequence (P78536 215-824): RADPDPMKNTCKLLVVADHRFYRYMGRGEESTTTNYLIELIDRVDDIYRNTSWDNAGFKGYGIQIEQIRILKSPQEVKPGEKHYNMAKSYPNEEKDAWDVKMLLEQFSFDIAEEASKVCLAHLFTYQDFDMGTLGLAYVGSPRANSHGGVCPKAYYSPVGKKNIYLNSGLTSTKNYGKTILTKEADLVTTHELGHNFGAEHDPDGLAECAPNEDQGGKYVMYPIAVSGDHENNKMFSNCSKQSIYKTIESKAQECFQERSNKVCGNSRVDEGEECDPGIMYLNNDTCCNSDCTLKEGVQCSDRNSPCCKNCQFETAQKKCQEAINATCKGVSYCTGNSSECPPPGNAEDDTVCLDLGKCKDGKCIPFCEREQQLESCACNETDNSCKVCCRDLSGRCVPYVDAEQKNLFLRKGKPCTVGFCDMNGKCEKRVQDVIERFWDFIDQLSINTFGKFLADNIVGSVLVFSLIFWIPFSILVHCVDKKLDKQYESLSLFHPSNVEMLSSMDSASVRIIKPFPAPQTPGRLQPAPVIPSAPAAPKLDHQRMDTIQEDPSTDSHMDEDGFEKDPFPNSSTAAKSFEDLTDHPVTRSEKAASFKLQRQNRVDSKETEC
As to the kind of experiment: Residual enzyme activity of other metalloproteases. The note with it: read-out: Residual enzyme activity ADAM17. On the procedure:
as §1

The target of a further assay is T5, hADAM 10 (Homo sapiens, UniProt O14672).
T5 construct: purchased R&D systems
T5 sequence (O14672 214-748): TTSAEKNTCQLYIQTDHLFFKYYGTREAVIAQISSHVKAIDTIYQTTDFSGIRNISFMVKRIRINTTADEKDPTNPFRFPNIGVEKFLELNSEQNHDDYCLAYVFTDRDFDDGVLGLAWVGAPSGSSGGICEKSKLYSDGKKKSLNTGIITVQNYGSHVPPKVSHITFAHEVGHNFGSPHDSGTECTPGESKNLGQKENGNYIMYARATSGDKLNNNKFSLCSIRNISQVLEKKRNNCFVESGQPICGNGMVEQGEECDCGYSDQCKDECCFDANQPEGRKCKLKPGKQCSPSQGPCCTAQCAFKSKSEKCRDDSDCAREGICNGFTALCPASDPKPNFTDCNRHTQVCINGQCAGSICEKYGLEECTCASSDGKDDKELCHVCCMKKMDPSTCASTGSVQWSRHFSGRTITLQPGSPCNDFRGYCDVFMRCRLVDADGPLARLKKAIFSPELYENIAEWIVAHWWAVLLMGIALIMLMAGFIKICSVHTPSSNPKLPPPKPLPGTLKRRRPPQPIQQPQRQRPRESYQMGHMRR
As to the kind of experiment: Residual enzyme activity of other metalloproteases. The note with it: read-out: Residual enzyme activity ADAM10. On the procedure:
as §1

Assay [3] addresses T1, hMeprin α. Nature of the assay: Enzymatic assay, quenched peptide substrate cleavage, method B. The settings on record: geometric mean (geometric SD factor in parentheses). On the procedure: as §1, §2
The target of assay [4] is T2, hMeprin β. The description is as above. The settings on record: geometric mean (geometric SD factor in parentheses). On the procedure: as §1, §2

Molecules are shown by their SMILES.

What is called IC50 is the concentration that gives 50% inhibition. On to `Cn1nc(-c2ccccc2)c(CC(=O)NO)c1-c1ccccc1` [Example 35, 2-(1-Methyl-3,5-diphenyl-pyrazol-4-yl)ethanehydroxamic acid], for which the IC50 was 9 nM at hMeprin α [1] and 1220 nM on hMeprin β [2].
Regarding `O=C(Cc1c(-c2ccccc2)nn(-c2ccc(C(=O)O)cc2)c1-c1ccccc1)NO` [Example 37, 4-[4-[2-(Hydroxyamino)-2-oxo-ethyl]-3,5-diphenyl-pyrazol-1-yl]benzoic acid], the IC50 on hMeprin α [1] was 21 nM; on hMeprin β [2], 154 nM.
For the compound `O=C(Cc1c(-c2ccccc2)nn(-c2ccccc2)c1-c1ccccc1)NO` [Example 36, 2-(1,3,5-Triphenylpyrazol-4-yl)ethanehydroxamic acid], the IC50 worked out at 17 nM at hMeprin α [1] and 2380 nM on hMeprin β [2].
For `O=C(CCn1c(-c2ccccc2)cc2ccccc21)NO` [Example 26, 3-(2-Phenylindol-1-yl)propanehydroxamic acid], in that order: 475 nM and 13400 nM.
In the same order, the values of `O=C(Cc1c(-c2ccccc2)nn(-c2cccc(C(=O)O)c2)c1-c1ccccc1)NO` [Example 38, 3-[4-[2-(Hydroxyamino)-2-oxo-ethyl]-3,5-diphenyl-pyrazol-1-yl]benzoic acid] are 16 nM and 100 nM.
In the same order, the values of `O=C(CNc1c(-c2ccc3c(c2)OCCO3)nc2ccccn12)NO` [Example 32, 2-[[2-(2,3-Dihydro-1,4-benzodioxin-6-yl)imidazo-[1,2-a]pyridin-3-yl]amino]ethanehydroxamic acid] are 655 nM and 3140 nM.
Turning to `O=C(CNc1c(-c2cccc(C(=O)O)c2)nc2ccccn12)NO` [Example 31, 3-[3-[[2-(Hydroxyamino)-2-oxo-ethyl]amino]-imidazo[1,2-a]pyridin-2-yl]benzoic acid], the IC50 on hMeprin α [1] is 693 nM; on hMeprin β [2], 214 nM.
For `O=C(CNc1c(-c2ccc(C(=O)O)cc2)nc2ccccn12)NO` [Example 30, 4-[3-[[2-(Hydroxyamino)-2-oxo-ethyl]amino]-imidazo[1,2-a]pyridin-2-yl]benzoic acid], the IC50 was determined as 2280 nM on hMeprin α [1] and 176 nM at hMeprin β [2].
In the same order, the values of `O=C(Cn1nc(-c2ccccc2)cc1-c1ccccc1)NO` [Example 5, 2-(3,5-Diphenylpyrazol-1-yl)ethanehydroxamic acid] are 292 nM and 10500 nM.
In the same order, the values of `O=C(CNc1c(-c2ccccc2)nc2c(C(=O)O)cccn12)NO` [Example 33, 3-[[2-(Hydroxyamino)-2-oxo-ethyl]amino]-2-phenyl-imidazo[1,2-a]pyridine-8-carboxylic acid] are 6740 nM and 3100 nM.
`O=C(CNc1c(-c2ccccc2)nc2ccccn12)NO` [Example 29, 2-[(2-Phenylimidazo[1,2-a]pyridin-3-yl)amino]-ethanehydroxamic acid]: the IC50 was determined as 793 nM on hMeprin α [1] and 7120 nM on hMeprin β [2].
For `O=C(Cc1c(-c2ccccc2)nn(Cc2ccccc2)c1-c1ccccc1)NO` [Example 39, 2-(1-Benzyl-3,5-diphenyl-pyrazol-4-yl)ethanehydroxamic acid], in that order: 2 nM and 254 nM.
Consider `O=C(Cc1c(-c2ccccc2)ncn1-c1ccccc1)NO` [Example 12, 2-(3,5-Diphenylimidazol-4-yl)ethanehydroxamic acid], for which the IC50 on hMeprin α [1] stood at 2 nM; on hMeprin β [2], 486 nM.
With `O=C(Cc1c(-c2ccc3c(c2)OCO3)n[nH]c1-c1ccc2c(c1)OCO2)NO` [Example 57, 2-[3,5-Bis(1,3-benzodioxol-5-yl)-1H-pyrazol-4-yl]ethanehydroxamic acid], the remaining activity at 10 µM at hMMP 9 (10 μM inhibitor) came out at 63%; at hADAM 17 (10 μM inhibitor) it was 57%; at hADAM 10 (10 μM inhibitor), 62%. For the same compound, the results for the remaining activity at 200 µM on hMMP 9 (200 μM inhibitor), on hADAM 17 (200 μM inhibitor) and at hADAM 10 (200 μM inhibitor) were 10%, 4% and 0%, respectively. The Ki amounted to 0.64 nM at hMeprin α [3] (Morrison's equation, read-out: Meprin alpha Ki(app)) and 113 nM on hMeprin β [4] (Morrison's equation, read-out: Meprin beta Ki(app)). Moreover, the results for the IC50 on hMeprin α [3] (read-out: Meprin alpha IC50) and at hMeprin β [4] (read-out: Meprin beta IC50) were 0.72 nM and 119 nM, respectively.
Take `O=C(CCn1nc(-c2ccccc2)cc1-c1ccccc1)NO` [Example 6, 3-(3,5-Diphenylpyrazol-1-yl)propanehydroxamic acid]: the half-maximal inhibitory concentration (IC50) was found to be 457 nM on hMeprin α [1] and 15400 nM on hMeprin β [2].
In the same order, the values of `O=C(CCn1c(-c2ccccc2)nnc1-c1ccccc1)NO` [Example 8, 3-(3,5-Diphenyl-1,2,4-triazol-4-yl)propanehydroxamic acid] are 353 nM and 42300 nM.
In the case of `O=C(Cc1c(-c2ccccc2)nnn1-c1ccccc1)NO` [Example 11, 2-(3,5-Diphenyltriazol-4-yl)ethanehydroxamic acid], the IC50 at hMeprin α [1] was found to be 11 nM; at hMeprin β [2], 1450 nM.
In the same order, the values of `O=C(Cn1c(-c2ccccc2)nc2cccnc21)NO` [Example 23, 2-(2-Phenylimidazo[4,5-b]pyridin-3-yl)ethane-hydroxamic acid] are 273 nM and 4560 nM.
For the compound `O=C(Cc1c(-c2ccccc2)[nH]c2ccccc12)NO` [Example 27, 2-(2-Phenyl-1H-indol-3-yl)ethanehydroxamic acid], the IC50 on hMeprin α [1] was found to be 105 nM; at hMeprin β [2], 1200 nM.
With `O=C(Cc1c2ccccc2nn1-c1ccccc1)NO` [Example 34, 2-(2-Phenylindazol-3-yl)ethanehydroxamic acid], the figures for the IC50 on hMeprin α [1] and at hMeprin β [2] were 244 nM and 3370 nM, respectively.
Turning to `O=C(CCn1c(-c2ccccc2)ccc1-c1ccccc1)NO` [Example 10, 3-(2,5-Diphenylpyrrol-1-yl)propanehydroxamic acid], the concentration for half-maximal inhibition (IC50) stood at 727 nM on hMeprin α [1] and 15000 nM on hMeprin β [2].
